Laboratory results published in US20250313563A1, “GLYCOGEN SYNTHASE KINASE 3 INHIBITORS AND USES THEREOF” (The Broad Institute, Inc., priority 2022, published 2025).
pIC50: −log10 of the molar value. Like-named read-outs stand apart in the source and are kept apart here.

Assays:
[1] = biological target: GSK3α (Homo sapiens (Human), UniProt P49840); experiment: pThr231 tau phosphorylation plate-based assay in HEK-huTau cells transfected with GSK3α; format: cell-based; conditions: for pIC50: HEK-huTau cells transfected with human GSK3α, 10-point dose response, 2 hours, read-out: GSK3α IC50 (inhibition of pThr231); for selectivity for GSK3α over GSK3β: pThr231 HEK-huTau assay, GSK3β IC50 / GSK3α IC50
Method: (§1) HEK293 or SH-SY5Y cells were obtained from American Type Culture Collection (ATCC, Manassas, VA) and cultured in Dulbecco's modified Eagle's medium (DMEM) supplemented with 10% fetal bovine serum (FBS), 10 units/ml penicillin, and 10 μg/ml streptomycin (all reagents were purchased from Gibco, Waltham, MA). Cell cultures were maintained in a humidified 5% (v/v) CO2/air environment at 37° C. When the cells reached 50-80% confluence, they were transfected with a complex consisting of a 3:1 ratio of FuGENE 6 Transfection Reagent (Promega, Madison, WI) and plasmid DNA. Plasmid DNA was balanced out across reactions using an empty plasmid so that the same amount of DNA was added per well. This transfection complex was prepared following the manufacturers protocol and added directly to the cell media for 24 or 48 hours prior to lysis.
(§2) 293T cells stably expressing human 2N4R Tau were transfected with appropriate cDNA plasmids. 24 hours following transfection cells were treated with compound in a 10-point dose-response (from 1000× stocks of compound) and lysates harvested 2 hours later with cell extraction buffer (Life Technologies Cat #BN0001) or RIPA Buffer with Halt protease/phosphatase inhibitors added.
(§3) For pThr231 assay: Lysate was diluted 1:100 in assay buffer and Total Tau and pTau T231 was assessed by plate-based ELISA as per manufacturer instructions (MSD Cat #K15121D-1). Total fluorescence was measured using an Envison plate reader.
(§4) To test the potency and isoform selectivity of GSK3 small molecule inhibitors, HEK-huTau cells were transfected with plasmids containing either human GSK3α or GSK3β. Twenty-four hours after transfection, compounds were added at a 10-point dose response curve (at a range of 30 μM-3 nM) for a total of 2 hours, and cell lysates were probed for total tau and pThr231 using a plate-based assay.

[2] = biological target: GSK3α (GST-full length GSK3α) (Homo sapiens (Human), UniProt P49840); experiment: GSK3α TR-FRET kinase assay; format: biochemical
In short: (§5)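 1 nM GST-GSK3α/β + cpd, 30 min preinc; add 200 nM biotin-pS645 GS(631-650) peptide + ATP (α 4 μM / β 2 μM, or 1 mM); 100 min RT, 50 mM Tris pH 7.5, 20 mM MgCl2, 1% DMSO; EDTA stop; SA-d2/Tb-pSer641 Ab 60 min; 665/615 ratio → IC50.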

[3] = biological target: T1, NanoLuc-GSK3α (Homo sapiens (Human), UniProt P49840); experiment: NanoBRET residence time, GSK3α; format: cell-based; conditions: inhibitor at 10× IC50, BRET every 5 min for 3 hours
[4] = biological target: human GSK3β (Homo sapiens (Human), UniProt P49841); experiment: pThr231 tau phosphorylation plate-based assay in HEK-huTau cells transfected with GSK3β; format: cell-based; conditions: HEK-huTau cells transfected with human GSK3β; 10-point dose response, 2 hours; read-out: GSK3β IC50 (inhibition of pThr231)
Method: as §1, §2, §3, §4

[5] = biological target: GSK3b (GST-full length GSK3b) (Homo sapiens (Human), UniProt P49841); experiment: GSK3b TR-FRET kinase assay; format: biochemical
In short: as §5

[6] = biological target: T1, NanoLuc-GSK3α; experiment: NanoBRET live-cell target engagement assay, GSK3α; format: cell-based; conditions: HEK293T cells, Tracer-8 at EC50
Method: (§6) HEK293T cells were transiently transfected with NanoLuc®-GSK3-alpha or NanoLuc®-GSK3-beta constructs using FuGene®-HD (Promega). Next day, the live cell NanoBRETTM target engagement assay was performed. […] Immediately prior to BRET measurements, NanoBRETTM Nano-Glo® Substrate and Extracellular NanoLuc® Inhibitor were added on cells and incubated for 2-3 minutes at room temperature. Donor emission at 450 nm and acceptor emission at 610 nm were measured using a EnVision plate reader. Raw BRET ratio values were calculated by dividing the acceptor emission value by the donor emission value for each sample. Raw BRET units were converted to milliBRET units (mBU) by multiplying each raw BRET value by 1000. mBU values for compound treatments were normalized to DMSO treatment. Ki values are calculated using the formula: Ki=(IC50)/(1+([Tracer]/EC50)). All experiments were performed as biological triplicates with three technical replications.
(§7) To further characterize the GSK3 inhibitor 837646, this compound was tested in a live-cell target engagement assay to investigate binding mode and residence time. […] In this assay, compound binding was quantified as loss of BRET signal from baseline due to competitive displacement of the tracer. […]

[7] = test system: β-catenin nuclear translocation in SH-SY5Y cells; experiment: β-catenin translocation assay; format: cell-based; conditions: SH-SY5Y cells
Method: SH-SY5Y cells were seeded into a 96-well CellCarrier Ultra (Perkin Elmer) plate at a density of 1×10^5 cells/ml in complete DMEM. Sixteen hours following plating, media was changed to DMEM with 2% serum, and compound was added with a D300e Digital Dispenser (Tecan) for an incubation time of six hours. After compound incubation, media was removed, and cells were fixed with 4% PFA for 10 minutes at room temperature. Each well was washed three times with PBS-T and then blocked with buffer (1×PBS with 5% Normal Goat Serum and 0.3% Triton X-100) for 30 minutes at room temperature. β-Catenin primary antibody (Cell Signaling #8480) was added at 1:500 dilution in blocking buffer and the cells were allowed to incubate in primary overnight at 4° C. The following day, primary antibody was removed, each well was washed three times with PBS-T, and secondary antibody (1:2000 anti-rabbit AlexaFluor Plus 488 and 1:10,000 Hoechst 33342) was added and allowed to incubate for 60 minutes at room temperature protected from light. After one-hour, secondary antibody was removed and wells were washed four times with PBS-T before imaging on the Opera Phenix. Sixteen fields per well were imaged with a 20× water lens.
Images were quantified in the Columbus Image Data Storage and Analysis software. Cells were identified using the Hoechst nuclear stain to identify individual nuclei. Intensity of the nuclear stain was also used to determine cell viability (Viable cells <30% CV of Hoechst Intensity)

[8] = biological target: NanoLuc-GSK3β (Homo sapiens (Human), UniProt P49841); experiment: NanoBRET live-cell target engagement assay, GSK3β; format: cell-based; conditions: HEK293T cells, Tracer-8 at EC50
Method: as §6, §7

[9] = 1 nM GSK3α, 4 μM ATP, 30 minute preincubation, Table 16, read-out: GSK3-A TR-FRET BIOCHEMICAL (TR-FRET)
[10] = 1 nM GSK3b, 2 μM ATP, 30 minute preincubation, Table 16, read-out: GSK3-B TR-FRET BIOCHEMICAL (TR-FRET)

GSK3α, sequence (P49840 whole entry): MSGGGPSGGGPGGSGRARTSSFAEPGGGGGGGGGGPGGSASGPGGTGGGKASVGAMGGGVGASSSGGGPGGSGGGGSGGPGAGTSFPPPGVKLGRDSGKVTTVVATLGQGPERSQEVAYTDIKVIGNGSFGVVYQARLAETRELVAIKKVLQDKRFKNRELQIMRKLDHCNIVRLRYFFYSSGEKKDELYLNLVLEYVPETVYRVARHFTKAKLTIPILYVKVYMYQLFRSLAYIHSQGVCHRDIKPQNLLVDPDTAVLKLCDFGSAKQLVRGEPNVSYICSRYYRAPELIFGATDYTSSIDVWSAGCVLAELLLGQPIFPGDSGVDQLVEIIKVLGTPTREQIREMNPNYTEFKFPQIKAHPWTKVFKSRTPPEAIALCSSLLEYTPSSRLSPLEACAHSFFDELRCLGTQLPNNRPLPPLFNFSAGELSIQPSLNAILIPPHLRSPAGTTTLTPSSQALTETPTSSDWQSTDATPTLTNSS
T1 sequence (P49840 whole entry): as above
GSK3α (GST-full length GSK3α), sequence (P49840 whole entry): as above
GSK3b (GST-full length GSK3b), sequence (P49841 whole entry): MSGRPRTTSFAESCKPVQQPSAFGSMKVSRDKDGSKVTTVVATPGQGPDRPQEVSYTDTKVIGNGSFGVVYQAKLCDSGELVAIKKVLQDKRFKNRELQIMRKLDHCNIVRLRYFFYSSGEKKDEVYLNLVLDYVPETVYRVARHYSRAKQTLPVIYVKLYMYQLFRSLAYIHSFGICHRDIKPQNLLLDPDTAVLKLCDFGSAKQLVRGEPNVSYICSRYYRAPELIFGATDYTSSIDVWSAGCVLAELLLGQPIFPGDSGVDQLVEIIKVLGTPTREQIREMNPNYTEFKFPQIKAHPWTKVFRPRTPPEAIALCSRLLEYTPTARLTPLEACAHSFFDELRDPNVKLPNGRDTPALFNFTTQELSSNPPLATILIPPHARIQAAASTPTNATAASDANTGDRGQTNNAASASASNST
NanoLuc-GSK3β, sequence (P49841 whole entry): as above
human GSK3β, sequence (P49841 whole entry): as above

How did the pIC50 [1] turn out when CCC1(c2cccc(-c3cn(C)nc3C)c2)C2=C(Nc3n[nH]cc31)C(F)C(C)(C)CC2=O (single isomer, unassigned) [Compound 947651, 4-(3-(1,3-dimethyl-1H-pyrazol-4-yl)phenyl)-4-ethyl-8-fluoro-7,7-dimethyl-2,4,6,7,8,9-hexahydro-5H-pyrazolo[3,4-b]quinolin-5-one] was run?
The pIC50 was 7.21.

What about the “selectivity for GSK3α over GSK3β” value [1] of the same molecule?
The value was 23 fold.

What about the pIC50 [2, 9] of the same molecule?
Its pIC50 is at least 7.00.

And the pIC50 ([2]; GSK3-A (TR-FRET 1 mM ATP), GMean, IC50, 1 mM ATP, geometric mean)?
Its pIC50 is at least 7.00.

And the “residence time at GSK3α” value [3]?
The value was “significantly longer residence times”.

And the pIC50 [4]?
The pIC50 was 5.85.

What about the pIC50 [5, 10] of the same molecule?
Its pIC50 is at least 7.00.

What about the pIC50 ([5]; GSK3-B (TR-FRET 1 mM ATP), GMean, IC50, 1 mM ATP, geometric mean) of the same molecule?
Its pIC50 is 6.00 to 7.00.

What about the “binding mode (competitive displacement of tracer), GSK3α” value [6] of the same molecule?
Its value is “ATP-competitive and direct GSK3 binders”.

What about the “β-catenin nuclear translocation (in words)” value [7] of the same molecule?
Its value is “nuclear translocation of β-catenin occurred at concentrations in which both GSK3 paralogs are being inhibited”.

What about the “binding mode (competitive displacement of tracer), GSK3β” value [8] of the same molecule?
The value was “ATP-competitive and direct GSK3 binders”.

With CCC1(c2cccc(-c3c(F)cncc3OC)c2)C2=C(Nc3n[nH]cc31)C(F)C(C)(C)CC2=O (stereo not shown) [Compound 948546, 4-ethyl-8-fluoro-4-(3-(3-fluoro-5-methoxypyridin-4-yl)phenyl)-7,7-dimethyl-2,4,6,7,8,9-hexahydro-SH-pyrazolo[3,4-b]quinolin-5-one] as the molecule, how does the pIC50 [1] read?
The pIC50 was 7.02.

And the “selectivity for GSK3α over GSK3β” value [1]?
Its value is 11 fold.

And the pIC50 [2, 9]?
The pIC50 was at least 7.00.

And the pIC50 ([2]; read-out: GSK3-A (TR-FRET 1 mM ATP), GMean, IC50, 1 mM ATP, geometric mean)?
The pIC50 was at least 7.00.

And the “residence time at GSK3α” value [3]?
Its value is “significantly longer residence times”.

What about the pIC50 [4] of the same molecule?
The pIC50 was 6.00.

And the pIC50 [5, 10]?
The pIC50 was at least 7.00.

What about the pIC50 ([5]; read-out: GSK3-B (TR-FRET 1 mM ATP), GMean, IC50, 1 mM ATP, geometric mean) of the same molecule?
The pIC50 was 6.00 to 7.00.

And the “binding mode (competitive displacement of tracer), GSK3α” value [6]?
The value was “ATP-competitive and direct GSK3 binders”.

What about the “β-catenin nuclear translocation (in words)” value [7] of the same molecule?
The value was “nuclear translocation of β-catenin occurred at concentrations in which both GSK3 paralogs are being inhibited”.

And the “binding mode (competitive displacement of tracer), GSK3β” value [8]?
The value was “ATP-competitive and direct GSK3 binders”.
